The source made the active and inactive calls.
What was measured:
[1] = Luminescence Cell-Based Dose Confirmation HTS to Identify Inhibitors of Platelet Dense Granule Release. [Related pubchem assays: 1663 (Primary HTS), 1678 (Summary of Project)]; format: functional
[2] = target: Luciferin 4-monooxygenase (Photinus pyralis, UniProt P08659); assay: firefly luciferase enzyme inhibitors, dose response, biochemical, luminescence (AID 1891)
[3] = target: T1, Rac GTPase-activating protein 1 (Homo sapiens, UniProt Q9H0H5); assay: MgcRacGAP GTPase-activating activity inhibitors, confirmation, biochemical, ADP Hunter fluorescence, primary and confirmatory (AID 624330); format: functional
T1 sequence (Q9H0H5 whole entry): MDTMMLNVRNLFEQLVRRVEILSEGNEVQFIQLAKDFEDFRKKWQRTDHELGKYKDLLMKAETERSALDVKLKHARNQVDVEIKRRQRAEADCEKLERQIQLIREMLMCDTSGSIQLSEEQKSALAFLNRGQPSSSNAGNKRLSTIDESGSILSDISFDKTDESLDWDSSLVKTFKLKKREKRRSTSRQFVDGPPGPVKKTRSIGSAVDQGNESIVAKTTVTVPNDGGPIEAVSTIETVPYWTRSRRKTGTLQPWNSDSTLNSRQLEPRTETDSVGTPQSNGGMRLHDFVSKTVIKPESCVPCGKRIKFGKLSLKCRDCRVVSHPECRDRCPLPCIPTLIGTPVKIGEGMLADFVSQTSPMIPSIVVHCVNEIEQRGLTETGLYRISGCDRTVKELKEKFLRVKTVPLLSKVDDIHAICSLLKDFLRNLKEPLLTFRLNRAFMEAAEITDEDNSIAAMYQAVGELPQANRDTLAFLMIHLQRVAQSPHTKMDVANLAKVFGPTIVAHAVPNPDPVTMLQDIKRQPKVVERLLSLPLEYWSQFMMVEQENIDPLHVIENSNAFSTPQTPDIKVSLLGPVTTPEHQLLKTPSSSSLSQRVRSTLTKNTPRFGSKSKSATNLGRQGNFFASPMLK

[4] = target: T2, Zinc finger protein mex-5 (Caenorhabditis elegans, UniProt Q9XUB2); assay: MEX-5/TCR-2 RNA interaction inhibitors, dose response, biochemical, C. elegans, fluorescence polarization (AID 1960)
T2 sequence (Q9XUB2 whole entry): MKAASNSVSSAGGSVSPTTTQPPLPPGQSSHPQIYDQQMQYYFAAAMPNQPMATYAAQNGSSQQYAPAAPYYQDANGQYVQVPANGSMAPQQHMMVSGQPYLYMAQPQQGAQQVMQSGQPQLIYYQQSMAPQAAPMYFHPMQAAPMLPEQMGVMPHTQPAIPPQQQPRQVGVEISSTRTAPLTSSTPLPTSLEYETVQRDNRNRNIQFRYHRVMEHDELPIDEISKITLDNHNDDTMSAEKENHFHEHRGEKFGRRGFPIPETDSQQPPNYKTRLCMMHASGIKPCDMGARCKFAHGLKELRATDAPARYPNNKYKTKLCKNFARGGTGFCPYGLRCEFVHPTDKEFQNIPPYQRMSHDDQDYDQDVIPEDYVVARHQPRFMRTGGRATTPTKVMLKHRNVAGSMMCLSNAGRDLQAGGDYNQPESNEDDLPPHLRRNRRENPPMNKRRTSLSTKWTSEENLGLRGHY

[5] = target: T3, RNA-binding protein pos-1 (Caenorhabditis elegans, UniProt G5EF15); assay: inhibitors of POS-1/mex-3 RNA binding, dose response, biochemical, fluorescence polarization (AID 1964);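 further: purified POS-1 fused to maltose binding protein made in E. coli; potency of compounds blocking POS-1 binding to fluorescent RNA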
T3 sequence (G5EF15 whole entry): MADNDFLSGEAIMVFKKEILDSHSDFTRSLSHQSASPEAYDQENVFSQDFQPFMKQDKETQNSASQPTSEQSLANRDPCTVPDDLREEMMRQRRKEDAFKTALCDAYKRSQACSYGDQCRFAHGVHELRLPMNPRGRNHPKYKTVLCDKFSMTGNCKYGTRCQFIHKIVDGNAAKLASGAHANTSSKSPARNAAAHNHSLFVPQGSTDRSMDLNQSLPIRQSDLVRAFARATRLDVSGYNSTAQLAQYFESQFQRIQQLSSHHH

[6] = target: Cytochrome P450 2C9 (Homo sapiens, UniProt P11712)
Sequence of Cytochrome P450 2C9 (P11712 whole entry): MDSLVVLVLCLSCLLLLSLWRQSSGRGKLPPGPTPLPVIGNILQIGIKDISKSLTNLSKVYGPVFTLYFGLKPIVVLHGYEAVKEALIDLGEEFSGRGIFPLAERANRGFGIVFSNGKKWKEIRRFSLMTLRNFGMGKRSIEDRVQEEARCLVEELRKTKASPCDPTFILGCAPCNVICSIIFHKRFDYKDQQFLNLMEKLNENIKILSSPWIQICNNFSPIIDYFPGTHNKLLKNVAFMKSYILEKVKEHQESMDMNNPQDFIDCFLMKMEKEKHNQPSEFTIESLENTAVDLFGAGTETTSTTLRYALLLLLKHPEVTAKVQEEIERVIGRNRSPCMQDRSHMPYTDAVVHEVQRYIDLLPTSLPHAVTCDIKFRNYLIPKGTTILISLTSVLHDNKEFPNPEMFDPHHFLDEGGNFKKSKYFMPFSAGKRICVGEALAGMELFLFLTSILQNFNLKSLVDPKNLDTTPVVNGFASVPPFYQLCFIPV

[7] = target: Cytochrome P450 2C19 (Homo sapiens, UniProt P33261); assay: Cytochrome panel assay with activity outcomes. Panel member name: p450-cyp2c19 Compounds with AC50 equal or less than 10 uM are considered active; format: functional; details: read-out: AC50
Sequence of Cytochrome P450 2C19 (P33261 whole entry): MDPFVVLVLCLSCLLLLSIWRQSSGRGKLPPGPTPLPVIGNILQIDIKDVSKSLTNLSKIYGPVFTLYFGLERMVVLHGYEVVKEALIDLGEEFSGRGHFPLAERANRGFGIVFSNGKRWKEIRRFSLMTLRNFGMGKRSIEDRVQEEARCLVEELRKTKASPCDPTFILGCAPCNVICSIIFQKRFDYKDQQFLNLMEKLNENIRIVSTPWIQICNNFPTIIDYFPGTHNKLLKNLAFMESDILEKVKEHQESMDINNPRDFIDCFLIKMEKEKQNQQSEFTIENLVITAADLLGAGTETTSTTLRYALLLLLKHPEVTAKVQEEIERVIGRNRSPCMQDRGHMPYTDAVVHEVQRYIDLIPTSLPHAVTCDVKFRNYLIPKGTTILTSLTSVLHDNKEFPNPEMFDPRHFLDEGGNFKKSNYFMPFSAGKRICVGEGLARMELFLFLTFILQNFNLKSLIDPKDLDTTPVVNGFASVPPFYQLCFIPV

[8] = target: T4, Short transient receptor potential channel 4 (Mus musculus, UniProt Q9QUQ5); assay: mouse TRPC4 channel inhibitors, dose response, cell-based, HEK293 TRPC4/mu-opioid, Fluo-4 calcium (AID 434942); format: functional;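 further: potency of inhibitors blocking the TRPC4 calcium response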
T4 sequence (Q9QUQ5 whole entry): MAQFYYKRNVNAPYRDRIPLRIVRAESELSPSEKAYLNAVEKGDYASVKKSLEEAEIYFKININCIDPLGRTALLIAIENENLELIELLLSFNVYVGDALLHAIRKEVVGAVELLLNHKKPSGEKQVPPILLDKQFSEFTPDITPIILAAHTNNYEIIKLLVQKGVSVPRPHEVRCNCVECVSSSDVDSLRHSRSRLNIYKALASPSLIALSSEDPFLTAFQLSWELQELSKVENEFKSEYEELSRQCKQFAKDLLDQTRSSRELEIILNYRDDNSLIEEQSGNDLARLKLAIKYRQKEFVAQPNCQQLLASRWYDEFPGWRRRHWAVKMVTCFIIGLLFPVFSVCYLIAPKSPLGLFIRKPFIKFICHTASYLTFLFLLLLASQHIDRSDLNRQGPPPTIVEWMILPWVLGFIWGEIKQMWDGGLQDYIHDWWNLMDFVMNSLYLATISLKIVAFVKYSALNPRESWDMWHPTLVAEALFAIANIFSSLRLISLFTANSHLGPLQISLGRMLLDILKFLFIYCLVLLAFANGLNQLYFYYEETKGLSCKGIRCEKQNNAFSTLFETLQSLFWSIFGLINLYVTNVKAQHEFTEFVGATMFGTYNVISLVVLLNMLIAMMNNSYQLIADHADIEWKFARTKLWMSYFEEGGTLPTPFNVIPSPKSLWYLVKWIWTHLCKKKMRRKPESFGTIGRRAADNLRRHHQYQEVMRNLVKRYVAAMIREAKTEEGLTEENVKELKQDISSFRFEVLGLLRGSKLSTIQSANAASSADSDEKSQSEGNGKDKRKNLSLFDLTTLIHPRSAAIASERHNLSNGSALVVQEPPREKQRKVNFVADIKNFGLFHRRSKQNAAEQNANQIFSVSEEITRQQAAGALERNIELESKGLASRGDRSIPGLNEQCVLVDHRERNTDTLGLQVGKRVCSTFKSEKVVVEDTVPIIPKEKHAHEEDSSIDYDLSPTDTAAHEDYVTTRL

[9] = system: HeLa; assay: HeLa cell cytotoxicity, dose response, cytotoxicity control for MITF activator project, CellTiter-Glo luminescence, cherry-pick samples (AID 540259); format: functional, cell-based; details: Homo sapiens
[10] = target: T5, Polyadenylate-binding protein 1 (Homo sapiens, UniProt P11940); assay: PABP1 MLLE–PAM2 binding inhibitor potency, dose response, biochemical, fluorescence polarization, FITC-PAM2 peptide (AID 602259); format: functional; details: read-out: IC50_Mean
T5 sequence (P11940 whole entry): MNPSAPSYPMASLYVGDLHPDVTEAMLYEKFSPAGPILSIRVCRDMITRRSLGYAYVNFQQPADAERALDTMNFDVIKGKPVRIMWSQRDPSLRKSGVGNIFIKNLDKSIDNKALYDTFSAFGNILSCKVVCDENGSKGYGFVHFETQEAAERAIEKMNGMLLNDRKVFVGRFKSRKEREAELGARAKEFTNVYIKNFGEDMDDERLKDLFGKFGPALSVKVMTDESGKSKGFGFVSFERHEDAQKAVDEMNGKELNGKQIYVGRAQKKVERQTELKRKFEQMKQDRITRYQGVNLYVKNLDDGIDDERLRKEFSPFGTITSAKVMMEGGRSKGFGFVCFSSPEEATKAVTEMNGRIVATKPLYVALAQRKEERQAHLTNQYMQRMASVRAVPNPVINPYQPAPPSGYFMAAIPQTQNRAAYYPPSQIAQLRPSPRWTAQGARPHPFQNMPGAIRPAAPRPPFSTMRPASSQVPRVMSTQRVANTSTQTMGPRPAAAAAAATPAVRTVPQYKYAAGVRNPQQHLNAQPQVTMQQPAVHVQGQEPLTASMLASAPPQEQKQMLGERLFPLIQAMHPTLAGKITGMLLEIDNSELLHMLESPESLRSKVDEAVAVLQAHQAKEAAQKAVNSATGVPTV

[11] = target: T5, Polyadenylate-binding protein 1; assay: PABP1 MLLE–PAM2 interaction inhibitors, dose response, miRNA deadenylation inhibitor project, biochemical, fluorescence polarization, Cy5-PAM2 peptide, secondary (AID 602260); format: functional; details: read-out: IC50_Mean

Sequence of Luciferin 4-monooxygenase (P08659 whole entry): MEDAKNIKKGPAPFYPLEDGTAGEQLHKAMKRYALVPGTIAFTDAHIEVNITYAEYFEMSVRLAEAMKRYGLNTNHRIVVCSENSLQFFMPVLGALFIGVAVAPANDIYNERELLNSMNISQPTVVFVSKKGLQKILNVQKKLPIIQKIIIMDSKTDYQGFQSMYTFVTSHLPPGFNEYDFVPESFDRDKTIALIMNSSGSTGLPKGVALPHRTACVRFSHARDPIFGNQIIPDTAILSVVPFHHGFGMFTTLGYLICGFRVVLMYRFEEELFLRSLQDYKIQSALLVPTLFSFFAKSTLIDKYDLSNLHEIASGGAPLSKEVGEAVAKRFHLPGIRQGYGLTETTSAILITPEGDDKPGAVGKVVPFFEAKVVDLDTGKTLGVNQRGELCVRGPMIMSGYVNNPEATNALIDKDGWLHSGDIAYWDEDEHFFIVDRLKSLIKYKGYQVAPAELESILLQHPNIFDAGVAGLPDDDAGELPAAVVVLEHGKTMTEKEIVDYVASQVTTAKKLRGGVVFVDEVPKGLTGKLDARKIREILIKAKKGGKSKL

## Cc1cccc(C(=N)NOC(=O)c2ccc3c(c2)OCO3)c1
[1]
  EC50: 1.47 µM (active)
[2]
  EC50: 0.838 µM (active)

## Nc1c(Cl)cc(NC(=O)c2ccccc2C(=O)O)cc1Br
[3]
  IC50: 169 µM (active)

## O=C(COC(=O)c1cnc(O)nc1O)Nc1ccccc1Br
[1]
  EC50: > 112 µM (not active)
[2]
  EC50: > 112 µM (not active)

## CN(C)C1=NC(=O)/C(=C/c2ccc(-c3ccc(S(N)(=O)=O)cc3)o2)S1
[4]
  EC50: > 300 µM (not active)
[5]
  EC50: > 300 µM (not active)

## Cc1ccc(-n2[nH]c(=O)c3cccnc32)cc1
[6]
  AC50: 28.2 µM (inconclusive)
[7]
  AC50: 25.1 µM (inconclusive)
[3]
  IC50: 95.2 µM (active)

## CN(c1ccc(C(=O)Nc2ccc3c(c2)OCO3)cc1)S(C)(=O)=O
[1]
  EC50: 6 µM (active)
[2]
  EC50: 26.3 µM (active)

## Cc1cc2cc(C#N)c(NCCN=C(S)NCCCN3CCOCC3)nc2cc1C
[8]
  EC50: 5.31 µM (active)

## CC(Oc1ccc(Cl)cc1Cl)C(=O)Nc1ccc(O)cc1 (stereo unspecified)
[3]
  IC50: 38.4 µM (active)

## CCCCN(CCCC)C(=N)Nc1nc(C)cc(C)n1
[8]
  EC50: 3.76 µM (active)

## CCc1nnc(NS(=O)(=O)c2ccc(NCc3ccccc3O)cc2)s1
[1]
  EC50: > 112 µM (not active)
[2]
  EC50: > 112 µM (not active)

## CN1C(=O)NC(=O)/C(=C/c2ccc[nH]2)C1=O
[4]
  EC50: > 300 µM (not active)
[5]
  EC50: > 300 µM (not active)

## CCCCN(C)C(=O)CCC(=O)NNc1nc2ccccc2c2nc(C)nn12
[4]
  EC50: 5.37 µM (active)
[5]
  EC50: > 300 µM (not active)

## CC(Oc1ccc(Cl)cc1Cl)c1nc(-c2ccccn2)no1 (stereo unspecified)
[8]
  EC50: 1.88 µM (active)

## Nc1c(-c2ccc(Cl)cc2)cnn1-c1ccccc1
[9]
  AC50: 64.2 µM (active)

## CC(C)c1ccc(/C=C(\NC(=O)c2ccccc2)C(=O)NCCN2CCOCC2)cc1
[4]
  EC50: > 300 µM (not active)
[5]
  EC50: > 300 µM (not active)

## COc1ccc(OC(=O)COc2ccc(C)cc2)cc1
[3]
  IC50: 30 µM (active)

## COCCN1CCN(C(=O)c2ccc3nc(Cc4ccccc4F)oc3c2)CC1
[1]
  EC50: > 112 µM (not active)
[2]
  EC50: > 112 µM (not active)

## COC(=O)c1c(C)[nH]c(C(=O)OCC(=O)N2c3ccccc3NC(=O)C2(C)C)c1C
[1]
  EC50: > 112 µM (not active)
[2]
  EC50: > 112 µM (not active)

## Cc1ccc([N+](=O)[O-])cc1S(=O)(=O)Nc1ccc(O)c(Sc2nc[nH]n2)c1
[4]
  EC50: 9.83 µM (inconclusive)
[10]
  IC50: > 66 µM (inactive)
[11]
  IC50: > 66 µM (inactive)
[5]
  EC50: 9.8 µM (active)

## Cc1occc1C(=O)O/N=C(\N)c1ccccc1
[1]
  EC50: 2.59 µM (active)
[2]
  EC50: 3.91 µM (active)

## O=C(NNC(=O)c1ccccc1O)c1cccc(Br)c1
[4]
  EC50: 25.6 µM (active)
[5]
  EC50: 41 µM (active)

## CCCCNCc1cc(Cl)c(OCCC)c(OCC)c1
[8]
  EC50: 2.37 µM (active)

## CSCC(C)N1CCC(Oc2cccc(C(=O)NCc3ccccn3)c2)CC1 (stereo unspecified)
[4]
  EC50: 75.4 µM (active)
[10]
  IC50: 31.6 µM (inactive)
[11]
  IC50: 34.1 µM (inactive)
[5]
  EC50: 34.9 µM (active)

## COc1cc2c(cc1OC)-c1cc(Nc3cccc(F)c3)nc(=O)n1CC2
[1]
  EC50: 1.08 µM (active)
[2]
  EC50: > 112 µM (not active)

## CCCc1ccc(-c2cc(C(=O)NCCc3ccc(S(N)(=O)=O)cc3)c3ccccc3n2)cc1
[9]
  AC50: 37.5 µM (active)

## Cc1ccc(NC(=O)COC(=O)[C@H](C)NC(=O)c2ccccc2)cc1S(=O)(=O)N1CCOCC1
[1]
  EC50: > 112 µM (not active)
[2]
  EC50: > 112 µM (not active)

## NC(=O)c1nsc(C(=O)N(Cc2ccc(F)cc2)C(C(=O)NCC2CCCO2)c2ccc(O)cc2)c1N (stereo unspecified)
[8]
  EC50: 2.37 µM (active)

## OCCNc1nc(NCc2ccccc2)c2ccccc2n1
[8]
  EC50: 3.35 µM (active)

## COc1cc(C)c(NC(c2ccccc2)c2ccccc2)cc1OC
[3]
  IC50: 113 µM (active)

## CCOC(=O)c1c(N)sc(C(=O)Nc2ccc3c(c2)OCO3)c1C
[1]
  EC50: 3.34 µM (active)
[2]
  EC50: 1.28 µM (active)

## O=C(c1ccc(F)cc1)c1ccc(N2CCCCC2)cc1
[9]
  AC50: 57.7 µM (active)

## Cc1nc(/C=C2\C(=O)Nc3ccccc32)c[nH]1
[4]
  EC50: > 300 µM (not active)
[5]
  EC50: > 300 µM (not active)

## Cc1cccc(-n2ncc3c(N4CC(C)CC(C)C4)ncnc32)c1 (stereo unspecified)
[9]
  AC50: 163 µM (active)

## Cc1ccc(NC(=O)CN2CCCC2c2cccn2C)c(Br)c1 (stereo unspecified)
[9]
  AC50: 52.2 µM (active)

## Fc1ccc(-n2cc(CNCCc3ccncc3)c(-c3ccccc3Cl)n2)cc1
[8]
  EC50: 3.35 µM (active)

## CC(C)=CCCC(C)CN1CCC(n2nccc2NC(=O)C2CCCC2)CC1 (stereo unspecified)
[8]
  EC50: 5.31 µM (active)

## Oc1c(Br)cc(Br)cc1/C=N/c1ccc2[nH]ncc2c1
[8]
  EC50: 4.22 µM (active)

From ChEMBL document CHEMBL1201862, “PubChem BioAssay data set” (2004)
